Results reported in patent publication US20130267594A1, “PROLYL HYDROXYLASE INHIBITORS AS RADIATION MITIGATORS AND RADIATION PROTECTORS” (priority 2010, published 2013).

Key:
[1] = system: Suv39h1; type: cell-based
[2] = molecular target: T1, KDM4A (Homo sapiens, UniProt O75164); assay: H3K9me3 immunofluorescent staining in HEK293T cells transiently expressing KDM4A (FIG. 10B); type: cell-based; settings: DMOG 1 mM 24 hrs
T1 construct: expressed in transfected cells; host or cells: HEK293T cells
T1 sequence (O75164 1-1064): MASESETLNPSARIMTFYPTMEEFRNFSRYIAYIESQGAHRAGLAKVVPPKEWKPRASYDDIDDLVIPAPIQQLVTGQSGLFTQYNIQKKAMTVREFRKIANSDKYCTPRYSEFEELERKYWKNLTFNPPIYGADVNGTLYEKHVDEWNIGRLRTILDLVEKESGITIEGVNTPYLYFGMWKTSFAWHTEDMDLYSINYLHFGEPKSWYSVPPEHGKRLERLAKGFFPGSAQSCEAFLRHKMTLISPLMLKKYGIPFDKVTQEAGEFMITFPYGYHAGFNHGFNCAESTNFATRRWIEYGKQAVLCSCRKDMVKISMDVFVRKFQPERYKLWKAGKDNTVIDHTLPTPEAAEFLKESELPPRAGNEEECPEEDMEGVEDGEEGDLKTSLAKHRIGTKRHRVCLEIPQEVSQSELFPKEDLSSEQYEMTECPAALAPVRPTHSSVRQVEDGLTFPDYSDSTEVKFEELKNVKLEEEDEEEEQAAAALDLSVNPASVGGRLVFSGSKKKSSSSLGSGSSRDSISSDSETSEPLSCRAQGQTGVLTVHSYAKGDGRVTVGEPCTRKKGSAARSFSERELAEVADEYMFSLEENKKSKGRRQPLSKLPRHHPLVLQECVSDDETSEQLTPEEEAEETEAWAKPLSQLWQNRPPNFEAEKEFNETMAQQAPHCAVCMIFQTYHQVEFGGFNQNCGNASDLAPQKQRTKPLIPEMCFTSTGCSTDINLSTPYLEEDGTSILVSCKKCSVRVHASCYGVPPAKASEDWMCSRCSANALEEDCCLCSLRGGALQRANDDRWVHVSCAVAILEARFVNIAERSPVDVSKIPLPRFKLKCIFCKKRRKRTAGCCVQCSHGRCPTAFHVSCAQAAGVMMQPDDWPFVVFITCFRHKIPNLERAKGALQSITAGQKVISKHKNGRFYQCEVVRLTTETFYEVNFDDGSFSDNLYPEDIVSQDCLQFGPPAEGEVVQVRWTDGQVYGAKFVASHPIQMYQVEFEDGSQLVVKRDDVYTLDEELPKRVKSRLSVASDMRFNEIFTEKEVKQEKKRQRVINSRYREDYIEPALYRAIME

SMILES: COC(=O)CNC(=O)C(=O)OC [DMOG, dimethyloxalylglycine]
- DMOG dependent induction of Suv39h1 in cells lacking Hif1α [1]: abolished
- expression of the Suv39h1 methyltransferase [1]: increased expression of the Suv39h1 methyltransferase
- H3K9me3 levels in cells expressing KDM4A [2]: restored H3K9me3 levels to near normal
